Experimental findings from patent US11578061B2, “Inhibitors of LRRK2 kinase” (Halia Therapeutics, Inc., priority 2021, dated 2023) are described below.

The target in the test is recombinant human LRRK2 (catalytic domain only [amino acids 970-2527], GST-tagged) (Homo sapiens (Human), UniProt Q5S007). In words: LRRK2 Enzymatic Assay. It is filed as biochemical. Particulars: LRRKtide substrate, [32P]-ATP. As for the experimental part: LRRKtide substrate (peptide sequence RLGRDKYKTLRQIRQ, derived from human ezrin [amino acids 561-573], moesin [amino acids 539-553] and radixin [amino acids 558-570], obtained from SignalChem, catalogue #L10-58, reconstituted in 20 mM Tris-HCl at pH 7.5 to a final concentration of 1 mg/mL, assay concentration 20 μM) and recombinant human LRRK2 (catalytic domain only [amino acids 970-2527], GST-tagged, expressed in insect cells, obtained from ThermoFisher Scientific, catalogue #PV4874, 0.35 mg/mL, assay concentration 30 nM) were mixed in assay buffer (20 mM Hepes pH 7.5, 10 mM MgCl2, 1 mM EGTA, 0.02% Brij35, 0.02 mg/ml BSA, 0.1 mM Na3VO4, 2 mM DTT, 1% DMSO). Compounds of interest (in DMSO, serial 3-fold dilution from 10 μM to 0.5 nM) or control (1% DMSO) were dispensed into the kinase reaction mixture by Acoustic technology (Echo550; nanoliter range). After incubation at room temperature for 20 minutes, the kinase reaction was initiated by addition of [^32P]-ATP (Specific activity 10 μCi/μl) and the mixture was incubated at room temperature for 2 hours. The reaction was then stopped by spotting the reaction mixture on strips of phosphocellulose P81 paper. Following washing, the radioactivity of the P81 paper was measured and kinase activity data were expressed as the percent remaining kinase activity in test samples compared to vehicle (dimethyl sulfoxide) reactions. IC50 values and curve fits were obtained using Prism (GraphPad Software).
recombinant human LRRK2 (catalytic domain only [amino acids 970-2527], GST-tagged), sequence (Q5S007 970-2527): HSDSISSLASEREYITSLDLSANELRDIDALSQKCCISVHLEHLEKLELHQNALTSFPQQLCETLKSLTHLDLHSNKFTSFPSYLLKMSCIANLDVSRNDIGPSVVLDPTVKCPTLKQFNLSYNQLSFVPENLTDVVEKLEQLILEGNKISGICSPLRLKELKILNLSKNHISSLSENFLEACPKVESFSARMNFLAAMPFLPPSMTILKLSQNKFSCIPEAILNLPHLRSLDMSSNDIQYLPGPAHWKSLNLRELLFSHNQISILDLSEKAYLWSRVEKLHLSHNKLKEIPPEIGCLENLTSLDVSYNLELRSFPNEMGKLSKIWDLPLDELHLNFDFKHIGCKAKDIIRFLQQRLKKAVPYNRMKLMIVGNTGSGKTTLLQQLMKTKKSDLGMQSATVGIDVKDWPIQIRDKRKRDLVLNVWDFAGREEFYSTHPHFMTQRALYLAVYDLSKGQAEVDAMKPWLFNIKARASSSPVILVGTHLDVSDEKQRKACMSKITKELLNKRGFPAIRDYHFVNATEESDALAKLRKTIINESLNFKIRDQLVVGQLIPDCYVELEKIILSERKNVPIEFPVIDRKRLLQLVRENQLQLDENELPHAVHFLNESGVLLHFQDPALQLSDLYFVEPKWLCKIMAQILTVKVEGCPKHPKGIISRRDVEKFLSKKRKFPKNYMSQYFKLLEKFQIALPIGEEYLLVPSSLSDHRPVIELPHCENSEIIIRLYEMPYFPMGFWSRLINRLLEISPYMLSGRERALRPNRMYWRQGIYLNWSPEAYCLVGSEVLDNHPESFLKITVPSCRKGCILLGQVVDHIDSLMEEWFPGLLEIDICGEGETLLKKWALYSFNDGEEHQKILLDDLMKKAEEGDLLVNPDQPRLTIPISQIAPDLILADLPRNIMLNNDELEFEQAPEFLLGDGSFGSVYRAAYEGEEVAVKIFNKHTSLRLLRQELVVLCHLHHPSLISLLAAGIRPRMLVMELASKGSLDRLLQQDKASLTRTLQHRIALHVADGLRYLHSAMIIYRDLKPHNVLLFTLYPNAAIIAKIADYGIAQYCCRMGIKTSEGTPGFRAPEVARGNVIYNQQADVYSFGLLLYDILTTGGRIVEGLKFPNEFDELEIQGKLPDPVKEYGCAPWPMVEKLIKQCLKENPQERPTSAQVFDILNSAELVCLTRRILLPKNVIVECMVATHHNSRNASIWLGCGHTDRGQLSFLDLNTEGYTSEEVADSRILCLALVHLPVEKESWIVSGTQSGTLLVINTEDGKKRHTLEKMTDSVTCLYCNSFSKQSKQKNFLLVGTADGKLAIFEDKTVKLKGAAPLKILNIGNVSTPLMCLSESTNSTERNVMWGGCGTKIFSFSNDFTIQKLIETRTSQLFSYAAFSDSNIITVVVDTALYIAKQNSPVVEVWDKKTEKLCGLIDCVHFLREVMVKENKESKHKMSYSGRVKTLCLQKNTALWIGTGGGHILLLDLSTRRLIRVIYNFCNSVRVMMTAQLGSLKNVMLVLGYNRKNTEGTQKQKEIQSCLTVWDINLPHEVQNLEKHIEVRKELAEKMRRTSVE
Turning to `Fc1cnc(Nc2ccc(N3CCOCC3)cc2)nc1OCC1CCC(OC(F)(F)F)CC1` (single isomer, unassigned) [Example 282, 5-fluoro-N-(4-morpholinophenyl)-4-((4-(trifluoromethoxy)cyclohexyl)methoxy)pyrimidin-2-amine], the IC50 (as a rule, the midpoint of a concentration-inhibition curve) was greater than 400 nM.
As for `COc1cc(C(=O)N2CCOCC2)c(F)cc1Nc1ncc(F)c(OC[C@H]2CC[C@H](NC(C)=O)CC2)n1` [Example 182, N-((1R,4R)-4-(((5-fluoro-2-((5-fluoro-2-methoxy-4-(morpholine-4-carbonyl)phenyl)amino)pyrimidin-4-yl)oxy)methyl)cyclo-hexyl)acetamide], the IC50 is 50 to 200 nM.
On to `CC(=O)N[C@H]1CC[C@H](COc2nc(Nc3cn(C(F)F)nc3C)ncc2F)CC1` [Example 197, N-((1R,4R)-4-(((2-((1-(difluoromethyl)-3-methyl-1H-pyrazol-4-yl)amino)-5-fluoropyrimidin-4-yl)oxy)methyl)cyclo-hexyl)acetamide], for which the IC50 is 50 to 200 nM.
As for `CC(=O)N[C@H]1CC[C@H](COc2nc(Nc3cn(C(C)C)nc3C)ncc2F)CC1` [Example 195, N-((1R,4R)-4-(((5-fluoro-2-((1-isopropyl-3-methyl-1H-pyrazol-4-yl)amino)pyrimidin-4-yl)oxy)methyl)cyclo-hexyl)acetamide], the IC50 is less than 50 nM.
As for `OC1CC2(C1)CC(COc1nc(Nc3ccc(N4CCOCC4)cc3)ncc1F)C2` (centres unmarked) [Example 134, 6-(((5-fluoro-2-((4-morpholinophenyl)amino)pyrimidin-4-yl)oxy)methyl)spiro[3.3]heptan-2-ol], the IC50 was less than 50 nM.
For `CNC[C@H]1CC[C@H](COc2nc(Nc3cn(C4CC(C#N)C4)nc3C)ncc2Cl)CC1` (stereo partly drawn) [Example 51, 3-(4-((5-chloro-4-(((1R,4R)-4-((methylamino)methyl)cyclohexyl)methoxy)pyrimidin-2-yl)amino)-3-methyl-1H-pyrazol-1-yl)cyclobutane-1-carbonitrile], the IC50 is less than 50 nM.
With `OC1CCC(COc2nc(Nc3ccc(N4CCOCC4)cc3)ncc2F)CC1` (centres unmarked) [Example 123, 4-(((5-fluoro-2-((4-morpholinophenyl)amino)pyrimidin-4-yl)oxy)methyl)cyclohexan-1-ol], the IC50 is 50 to 200 nM.
Regarding `CN[C@H]1CC[C@H](COc2ccnc(Nc3ccc(N4CCOCC4)cc3)n2)CC1` [Example 31, 4-(((1R,4R)-4-(methylamino)cyclo-hexyl)methoxy)-N-(4-morpholinophenyl) pyrimidin-2-amine], the IC50 was less than 50 nM.
Regarding `O=C(N[C@H]1CC[C@@H](COc2nc(Nc3ccc(N4CCOCC4)cc3)ncc2Cl)C1)C(F)F` [Example 102, N-((1S,3R)-3-(((5-chloro-2-((4-morpholino-phenyl)amino)pyrimidin-4-yl)oxy)methyl)cyclopentyl)-2,2-difluoro-acetamide], the IC50 was less than 50 nM.
Take `CC(C)n1cc(Nc2ncc(F)c(OCC3CCNCC3(F)F)n2)cn1` (centres unmarked) [Example 164, 4-((3,3-difluoropiperidin-4-yl)methoxy)-5-fluoro-N-(1-isopropyl-1H-pyrazol-4-yl)pyrimidin-2-amine]: the IC50 was less than 50 nM.
With `COc1nn(C2CC2)cc1Nc1ncc(F)c(OC[C@H]2CC[C@H](NC(C)=O)CC2)n1` [Example 208, N-((1R,4R)-4-(((2-((1-cyclopropyl-3-methoxy-1H-pyrazol-4-yl)amino)-5-fluoropyrimidin-4-yl)oxy)methyl)cyclo-hexyl)acetamide], the IC50 was less than 50 nM.
For the molecule `CC(=O)N[C@H]1CC[C@H](COc2nc(Nc3cn(C(C)C)nc3Cl)ncc2F)CC1` [Example 202, N-((1R,4R)-4-(((2-((3-chloro-1-isopropyl-1H-pyrazol-4-yl)amino)-5-fluoropyrimidin-4-yl)oxy)methyl)cyclo-hexyl)acetamide], the IC50 was less than 50 nM.
The same measure for `CC(C)n1cc(Nc2ncc(F)c(OC[C@H]3CC[C@H](O)CC3)n2)c(Cl)n1` [Example 238, (1R,4R)-4-(((2-((3-chloro-1-isopropyl-1H-pyrazol-4-yl)amino)-5-fluoropyrimidin-4-yl)oxy)methyl)cyclohexan-1-ol]: 200 to 400 nM; for `Cc1c(Nc2ncc(Cl)c(OCC3CCN(C)CC3)n2)cnn1C1CC(C#N)C1` (centres unmarked) [Example 58, 3-(4-((5-chloro-4-((1-methylpiperidin-4-yl)methoxy)pyrimidin-2-yl)amino)-5-methyl-1H-pyrazol-1-yl)cyclobutane-1-carbonitrile]: less than 50 nM; for `COCCn1ncc(Nc2ncc(F)c(OC[C@H]3CC[C@H](O)CC3)n2)c1Cl` [Example 241, (1R,4R)-4-(((2-((5-chloro-1-(2-methoxyethyl)-1H-pyrazol-4-yl)amino)-5-fluoropyrimidin-4-yl)oxy)methyl)cyclohexan-1-ol]: 50 to 200 nM.
Turning to `CC(=O)N[C@H]1CC[C@H](COc2nc(Nc3cnn(C)c3)ncc2F)CC1` [Example 183, N-((1R,4R)-4-(((5-fluoro-2-((1-methyl-1H-pyrazol-4-yl)amino)pyrimidin-4-yl)oxy)methyl)cyclo-hexyl)acetamide], the IC50 lay in the range of 50 to 200 nM.
Consider `Cc1nn(C(C)(C)C#N)cc1Nc1ncc(F)c(OCC2CCCC(O)CC2)n1` (single isomer, unassigned) [Example 263, 2-(4-((5-fluoro-4-((4-hydroxycycloheptyl)methoxy)pyrimidin-2-yl)amino)-3-methyl-1H-pyrazol-1-yl)-2-methylpropanenitrile], for which the IC50 is less than 50 nM.
With `NC1CCCC(COc2ccnc(Nc3ccc(N4CCOCC4)cc3)n2)C1` (centres unmarked) [Example 11, 4-((3-aminocyclohexyl)methoxy)-N-(4-morpholinophenyl) pyrimidin-2-amine], the IC50 lay in the range of 50 to 200 nM.
In the case of `Cc1nn(C(C)(C)C#N)cc1Nc1ncc(Cl)c(OCC2CCC(C)(O)CC2)n1` (centres unmarked) [Example 135, 2-(4-((5-chloro-4-((4-hydroxy-4-methylcyclohexyl)methoxy)pyrimidin-2-yl)amino)-3-methyl-1H-pyrazol-1-yl)-2-methylpropanenitrile], the IC50 was less than 50 nM.
With `Cn1cc(Nc2ncc(F)c(OC[C@H]3CC[C@H](O)CC3)n2)cn1` [Example 216, (1R,4R)-4-(((5-fluoro-2-((1-methyl-1H-pyrazol-4-yl)amino)pyrimidin-4-yl)oxy)methyl)cyclohexan-1-ol], the IC50 is less than 50 nM.
On to `OCCn1cc(Nc2ncc(F)c(OC[C@H]3CC[C@H](O)CC3)n2)cn1` [Example 225, (1R,4R)-4-(((5-fluoro-2-((1-(2-hydroxyethyl)-1H-pyrazol-4-yl)amino)pyrimidin-4-yl)oxy)methyl)cyclohexan-1-ol], for which the IC50 was less than 50 nM.
Consider `Cc1nn(C(C)(C)C#N)cc1Nc1ncc(F)c(OCC2(F)CCN(C)CC2)n1` [Example 66, 2-(4-((5-fluoro-4-((4-fluoro-1-methylpiperidin-4-yl)methoxy)pyrimidin-2-yl)amino)-3-methyl-1H-pyrazol-1-yl)-2-methylpropanenitrile], for which the IC50 is greater than 400 nM.
As to `C[C@@H]1CN(c2ccc(Nc3ncc(F)c(OC[C@H]4CC[C@H](OC(F)F)CC4)n3)cc2)C[C@H](C)O1` [Example 285, 4-(((1R,4R)-4-(difluoromethoxy)cyclohexyl)methoxy)-N-(4-((2S,6R)-2,6-dimethylmorpholino)phenyl)-5-fluoropyrimidin-2-amine], the IC50 lay in the range of 200 to 400 nM.
The same measure for `COCCn1cc(Nc2ncc(F)c(OC[C@H]3CC[C@H](NC(C)=O)CC3)n2)cn1` [Example 191, N-((1R,4R)-4-(((5-fluoro-2-((1-(2-methoxyethyl)-1H-pyrazol-4-yl)amino)pyrimidin-4-yl)oxy)methyl)cyclo-hexyl)acetamide]: less than 50 nM; for `CC(C)OC1CCC(COc2nc(Nc3ccc(N4CCOCC4)cc3)ncc2F)CC1` (racemic) [Example 278, 5-fluoro-4-((4-isopropoxycyclohexyl)methoxy)-N-(4-morpholinophenyl)pyrimidin-2-amine]: 50 to 200 nM; for `Cn1cc(Nc2ncc(F)c(OC[C@H]3CC[C@H](O)CC3)n2)c(Cl)n1` [Example 237, (1R,4R)-4-(((2-((3-chloro-1-methyl-1H-pyrazol-4-yl)amino)-5-fluoropyrimidin-4-yl)oxy)methyl)cyclohexan-1-ol]: 50 to 200 nM.
As for `COC1CCC(COc2ccnc(Nc3cn(C(C)(C)C#N)nc3C)n2)CC1` (centres unmarked) [Example 162, 2-(4-((4-((4-methoxycyclohexyl)methoxy)pyrimidin-2-yl)amino)-3-methyl-1H-pyrazol-1-yl)-2-methylpropanenitrile], the IC50 fell in the range of 200 to 400 nM.
Turning to `CC(C)(O)[C@H]1CC[C@H](COc2ccnc(Nc3ccc(N4CCOCC4)cc3)n2)CC1` [Example 136, 2-((1R,4R)-4-(((2-((4-morpholinophenyl)amino)pyrimidin-4-yl)oxy)methyl)cyclohexyl)propan-2-ol], the IC50 lay in the range of 50 to 200 nM.
As for `C[C@@H]1CN(c2ccc(Nc3nc(Cl)c(F)c(OC[C@H]4CC[C@H](O)CC4)n3)cc2)C[C@H](C)O1` [Example 247, (1R,4R)-4-(((6-chloro-2-((4-((2S,6R)-2,6-dimethylmorpholino)phenyl)amino)-5-fluoropyrimidin-4-yl)oxy)methyl)cyclohexan-1-ol], the figure is greater than 400 nM.
